Data from PMC8365601, “Terphenyl-Based Small-Molecule Inhibitors of Programmed Cell Death-1/Programmed Death-Ligand 1 Protein–Protein Interaction” (Journal of Medicinal Chemistry, 2021).
Where two headings read alike, the source gives them in different places.

Biological target: PD-1/PD-L1 complex (Homo sapiens, UniProt Q9NZQ7)
Test: HTRF assay of PD-1/PD-L1 complex dissociation (CisBio);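 further: human PD-L1 at 5 nM with human PD-1 at 50 nM, TR-FRET signal read after 2 h at room temperature, background removed via negative control and scaled to positive control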
Conditions: for remaining activity at 5 µM / remaining activity at 50 µM / remaining activity at 0.005 µM: 2 h; for IC50: HTRF; for % of undissociated complex: at 50 μM, Table S1; for HTRF % of the undissociated complex: determined at 50 μM inhibitor (footnote a), Table 2; for % of the undissociated complex: 5 μM
[1] = read-out: % of the undissociated complex in HTRF
[2] = read-out: % of undissociated complex at 5 μM
[3] = read-out: HTRF % of the undissociated complex at 5 μM
[4] = read-out: % of undissociated complex at 5 nM
[5] = read-out: HTRF % of the undissociated complex at 5 nM
[6] = Table 4, <1.00 = limit of quantification reached

Sequence of PD-1/PD-L1 complex (Q9NZQ7 19-238 limits assumed, one chain of several): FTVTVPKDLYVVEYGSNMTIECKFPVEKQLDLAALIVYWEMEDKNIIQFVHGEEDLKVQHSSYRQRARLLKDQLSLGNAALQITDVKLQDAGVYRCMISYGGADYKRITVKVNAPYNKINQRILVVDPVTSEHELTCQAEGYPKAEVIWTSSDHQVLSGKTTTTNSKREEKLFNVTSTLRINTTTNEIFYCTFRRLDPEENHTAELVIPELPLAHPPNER
Method: HTRF was performed using the certified CisBio assay according to the manufacturer’s guidelines. The experiments were performed at 5 nM h-PD-L1 and 50 nM hPD-1 in the final formulation at 20 μL final volume in the well. To determine the half-maximal inhibitory concentration (IC50) of tested compounds, measurements were performed on two individual dilution series, unless states otherwise. After mixing all components according to the CisBio protocol, the plate was left for 2 h incubation at room temperature, followed by time-resolved fluorescence energy transfer (TR-FRET) measurement on Tecan Spark 20M. Collected data were background-subtracted on the negative control, normalized on the positive control, averaged, and fitted with normalized Hill’s equation to determine the IC50 value using Mathematica 12.

Row | Compound | remaining activity at 5 µM [1] | remaining activity at 5 µM [2] | remaining activity at 5 µM [3] | remaining activity at 0.005 µM [4] | remaining activity at 0.005 µM [5] | further results
1 | Cc1c(-c2cccc(CO)c2)cccc1-c1ccc2c(c1)OCCO2 [4b, (3′-(Benzo-1,4-dioxan-6-yl)-2′-methyl-[1,1′-biphenyl]-3-yl)methanol] | 88% | 88% | 88% |  |  | 
2 | Cc1c(-c2ccc3c(c2)OCCO3)cccc1-c1ccccc1CO [4c, (3′-(Benzo-1,4-dioxan-6-yl)-2′-methyl-[1,1′-biphenyl]-2-yl)methanol] | 98% | 98% | 98% |  |  | 
3 | Nc1c(-c2ccc(CO)cc2)cccc1-c1ccc2c(c1)OCCO2 [4d, (2′-Amino-3′-(benzo-1,4-dioxan-6-yl)-[1,1′-biphenyl]-4-yl)methanol] | 73% | 73% | 73% |  |  | 
4 | OCc1ccc(-c2cccc(-c3ccc4c(c3)OCCO4)c2Cl)cc1 [4e, (3′-(Benzo-1,4-dioxan-6-yl)-2′-chloro-[1,1′-biphenyl]-4-yl)methanol] | 1% | 1% | 1% |  |  | IC50: ~500 nM; IC50 (Table 1): 510 ± 10 nM
5 | OCc1ccc(-c2cccc(-c3ccc4c(c3)OCCO4)c2Br)cc1 [4f, (3′-(Benzo-1,4-dioxan-6-yl)-2′-bromo-[1,1′-biphenyl]-4-yl)methanol] | 15% | 15% | 15% |  |  | IC50 (Table 1): 950 ± 20 nM
6 | OCc1ccc(-c2cccc(-c3ccc4c(c3)OCCO4)c2I)cc1 [4g, (3′-(Benzo-1,4-dioxan-6-yl)-2′-iodo-[1,1′-biphenyl]-4-yl)methanol] | 56% | 56% | 56% |  |  | 
7 | N#Cc1c(-c2ccc(CO)cc2)cccc1-c1ccc2c(c1)OCCO2 [4h] | 21% | 21% | 21% |  |  | IC50 (Table 1): 1170 ± 120 nM
8 | Cc1c(-c2ccc(COc3cccc(C(=O)O)c3)cc2)cccc1-c1ccc2c(c1)OCCO2 [5b, 3-((3′-(Benzo-1,4-dioxan-6-yl)-2′-methyl-[1,1′-biphenyl]-4-yl)methoxy)benzoic Acid] |  |  |  |  |  | remaining activity at 50 µM [1]: 71%; % of undissociated complex: 71%; HTRF % of the undissociated complex: 71^[a] %
9 | Cc1c(-c2ccc(COc3ccc(-c4cccnc4)c(C=O)c3)cc2)cccc1-c1ccc2c(c1)OCCO2 [5d, 5-((3′-(Benzo-1,4-dioxan-6-yl)-2′-methyl-[1,1′-biphenyl]-4-yl)methoxy)-2-(pyridin-3-yl)benzaldehyde] |  |  |  |  |  | remaining activity at 50 µM [1]: 65%; % of undissociated complex: 65%; HTRF % of the undissociated complex: 65^[a] %
10 | Cc1c(-c2ccc(COc3cc(C(=O)O)on3)cc2)cccc1-c1ccc2c(c1)OCCO2 [5f, 3-((3′-(Benzo-1,4-dioxan-6-yl)-2′-methyl-[1,1′-biphenyl]-4-yl)methoxy)isoxazole-5-carboxylic Acid] | 90% | 90% | 90% |  |  | 
11 | Cc1c(-c2ccc(Cn3cc(C(=O)O)nn3)cc2)cccc1-c1ccc2c(c1)OCCO2 [5h, 1-((3′-(Benzo-1,4-dioxan-6-yl)-2′-methyl-[1,1′-biphenyl]-4-yl)methyl)-1H-1,2,3-triazole-4-carboxylic Acid] | 100% | 100% | 100% |  |  | 
12 | Cc1c(-c2cccc(COc3cccc(C(=O)O)c3)c2)cccc1-c1ccc2c(c1)OCCO2 [5j, 3-((3′-(Benzo-1,4-dioxan-6-yl)-2′-methyl-[1,1′-biphenyl]-3-yl)methoxy)benzoic Acid] | 90% | 90% | 90% |  |  | 
13 | Cc1c(-c2cccc(COc3ccc(-c4cccnc4)c(C=O)c3)c2)cccc1-c1ccc2c(c1)OCCO2 [5l, 5-((3′-(Benzo-1,4-dioxan-6-yl)-2′-methyl-[1,1′-biphenyl]-3-yl)methoxy)-2-(yridine-3-yl)benzaldehyde] |  |  |  |  |  | remaining activity at 50 µM [1]: 95%; % of undissociated complex: 95%; HTRF % of the undissociated complex: 95^[a] %
14 | Cc1c(-c2cccc(COc3cc(C(=O)O)on3)c2)cccc1-c1ccc2c(c1)OCCO2 [5n, 3-((3′-(Benzo-1,4-dioxan-6-yl)-2′-methyl-[1,1′-biphenyl]-3-yl)methoxy)isoxazole-5-carboxylic Acid] | 77% | 77% | 77% |  |  | 
15 | Cc1c(-c2ccc3c(c2)OCCO3)cccc1-c1ccccc1COc1cccc(C(=O)O)c1 [5p, 3-((3′-(Benzo-1,4-dioxan-6-yl)-2′-methyl-[1,1′-biphenyl]-2-yl)methoxy)benzoic Acid] |  |  |  |  |  | remaining activity at 50 µM [1]: 87%; % of undissociated complex: 87%; HTRF % of the undissociated complex: 87^[a] %
16 | Cc1c(-c2ccc3c(c2)OCCO3)cccc1-c1ccccc1COc1cc(C(=O)O)on1 [5r, 3-((3′-(Benzo-1,4-dioxan-6-yl)-2′-methyl-[1,1′-biphenyl]-2-yl)methoxy)isoxazole-5-carboxylic Acid] | 100% | 100% | 100% |  |  | 
17 | Cc1c(-c2ccc(CN3CCOCC3)cc2)cccc1-c1ccc2c(c1)OCCO2 [6a, 4-((3′-(Benzo-1,4-dioxan-6-yl)-2′-methyl-[1,1′-biphenyl]-4-yl)methyl)morpholine] | 55% | 55% | 55% |  |  | 
18 | Cc1c(-c2ccc(CN3CCNCC3)cc2)cccc1-c1ccc2c(c1)OCCO2 [6b, 4-((3′-(Benzo-1,4-dioxan-6-yl)-2′-methyl-[1,1′-biphenyl]-4-yl)methyl)piperazine] | 5% | 5% | 5% |  |  | % of the undissociated complex: 5%
19 | Cc1c(-c2cccc(CN3CCNCC3)c2)cccc1-c1ccc2c(c1)OCCO2 [6c, 1-((3′-(Benzo-1,4-dioxan-6-yl)-2′-methyl-[1,1′-biphenyl]-3-yl)methyl)piperazine] | 56% | 56% | 56% |  |  | % of the undissociated complex: about 56%
20 | COc1cc(-c2cccc(-c3ccc4c(c3)OCCO4)c2C)ccc1CN1CCNCC1 [6d, 1-((3′-(Benzo-1,4-dioxan-6-yl)-3-methoxy-2′-methyl-[1,1′-biphenyl]-4-yl)methyl)piperazine] |  |  |  | 63% | 63% | 
21 | Cc1c(-c2ccc(CN3CCNCC3)c(OCc3cccc(C#N)c3)c2)cccc1-c1ccc2c(c1)OCCO2 [6e, 3-(((3′-(Benzo-1,4-dioxan-6-yl)-2′-methyl-4-(piperazin-1-ylmethyl)-[1,1′-biphenyl]-3-yl)oxy)methyl)benzonitrile] |  |  |  | 88% | 88% | 
22 | CCOc1cc(-c2cccc(-c3ccc4c(c3)OCCO4)c2Cl)ccc1CNCCNC(C)=O [7b, N-(2-(((3′-(Benzo-1,4-dioxan-6-yl)-2′-chloro-3-ethoxy-[1,1′-biphenyl]-4-yl)methyl)amino)ethyl)acetamide] |  |  |  | 5% | 5% | 
23 | CC(=O)NCCNCc1ccc(-c2cccc(-c3ccc4c(c3)OCCO4)c2Cl)cc1OC(C)C [7c, N-(2-(((3′-(Benzo-1,4-dioxan-6-yl)-2′-chloro-3-isopropoxy-[1,1′-biphenyl]-4-yl)methyl)amino)ethyl)acetamide] |  |  |  | 5% | 5% | 
24 | CC(=O)NCCNCc1ccc(-c2cccc(-c3ccc4c(c3)OCCO4)c2Cl)cc1OCCC(C)C [7d, N-(2-(((3′-(Benzo-1,4-dioxan-6-yl)-2′-chloro-3-isopentyloxy-[1,1′-biphenyl]-4-yl)methyl)amino)ethyl)acetamide] |  |  |  | 65% | 65% | 
25 | CC(=O)NCCNCc1ccc(-c2cccc(-c3ccc4c(c3)OCCO4)c2Cl)cc1OCC1CCC1 [7f, N-(2-(((3′-(Benzo-1,4-dioxan-6-yl)-2′-chloro-3-(cyclobutylmethoxy)-[1,1′-biphenyl]-4-yl)methyl)amino)ethyl)acetamide] |  |  |  | 53% | 53% | 
26 | CC(=O)NCCNCc1ccc(-c2cccc(-c3ccc4c(c3)OCCO4)c2Cl)cc1OCC1CCCC1 [7g, N-(2-(((3′-(Benzo-1,4-dioxan-6-yl)-2′-chloro-3-(cyclopentylmethoxy)-[1,1′-biphenyl]-4-yl)methyl)amino)ethyl)acetamide] |  |  |  | 76% | 76% | 
27 | CC(=O)NCCNCc1ccc(-c2cccc(-c3ccc4c(c3)OCCO4)c2Cl)cc1OCc1cccc(-c2cccc(C#N)c2)c1 [7h, N-(2-(((3′-(Benzo-1,4-dioxan-6-yl)-2′-chloro-3-((3′-cyano-[1,1′-biphenyl]-3-yl)methoxy)-[1,1′-biphenyl]-4-yl)methyl)amino)ethyl)acetamide] |  |  |  | 100% | 100% | 
28 | COc1cc(-c2cccc(-c3ccc4c(c3)OCCO4)c2Cl)ccc1CN1CCNCC1 [8a, 1-((3′-(Benzo-1,4-dioxan-6-yl)-2′-chloro-3-methoxy-[1,1′-biphenyl]-4-yl)methyl)piperazine] |  |  |  | 38% | 38% | IC50 [6]: 18.09 ± 0.09 nM
29 | COc1cc(-c2cccc(-c3ccc4c(c3)OCCO4)c2Cl)ccc1CN1CCN(C(N)=O)CC1 [8b, 4-((3′-(Benzo-1,4-dioxan-6-yl)-2′-chloro-3-methoxy-[1,1′-biphenyl]-4-yl)methyl)piperazine-1-carboxamide] |  |  |  | 28% | 28% | IC50 [6]: < 1 nM
30 | COc1cc(-c2cccc(-c3ccc4c(c3)OCCO4)c2Cl)ccc1CN1CCN(C(C)=O)CC1 [8c, 1-(4-((3′-(Benzo-1,4-dioxan-6-yl)-2′-chloro-3-methoxy-[1,1′-biphenyl]-4-yl)methyl)piperazin-1-yl)ethan-1-one] |  |  |  | 40% | 40% | IC50 [6]: < 1 nM
